Measurements published in PubChem BioAssay (NCI).
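These data come from cells grown in 96-well plates and exposed to compound for 48 hours at five concentrations. The concentration for full growth arrest is given as TGI.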

Assays:
Assay in all cases: NCI-60 cell line screen, 48 h
[1] = test system: SF-295 CNS
[2] = test system: RPMI-8226 leukemia
[3] = test system: CCRF-CEM leukemia
[4] = test system: 786-0 renal
[5] = test system: MALME-3M melanoma
[6] = test system: SK-OV-3 ovarian
[7] = test system: U251 CNS
[8] = test system: TK-10 renal
[9] = test system: NCI-H522 lung
[10] = test system: MDA-MB-231 breast
[11] = test system: SF-539 CNS
[12] = test system: OVCAR-4 ovarian
[13] = test system: SN12C renal
[14] = test system: HT29 colon
[15] = test system: SF-268 CNS
[16] = test system: PC-3 prostate
[17] = test system: HL-60(TB) leukemia
[18] = test system: BT-549 breast
[19] = test system: MDA-N
[20] = test system: M19-MEL melanoma

Row | Structure (SMILES) | TGI [1] | TGI [2] | TGI [3] | TGI [4] | TGI [5] | TGI [6] | TGI [7] | TGI [8] | TGI [9] | TGI [10] | TGI [11] | TGI [12] | TGI [13] | TGI [14] | TGI [15] | TGI [16] | TGI [17] | TGI [18] | TGI [19] | TGI [20]
1 | N#CC(C#N)=C/C=C(\Sc1c(Cl)c(Cl)nc(Cl)c1Cl)c1ccc(Cl)cc1 | 44.9 µM | > 100 µM | > 100 µM | 27.5 µM | 46.6 µM | 58.9 µM | 33.3 µM | 41.2 µM | 56.5 µM | 60 µM | 41.8 µM | > 100 µM | 42.4 µM | > 100 µM | 54.1 µM | > 100 µM | > 100 µM |  |  | 
2 | CC1(C)CCc2c(c(N=Nc3ccc(S(N)(=O)=O)cc3)c3ccccc3c2O)O1 | 24 µM | > 100 µM | 24.3 µM | 23.2 µM | 15.8 µM | 16.2 µM | 20.9 µM | 38 µM | 33.7 µM | 8.77 µM | 22.2 µM | 26 µM | 23.2 µM | 38.1 µM | 84.9 µM | 36.1 µM | 49.9 µM | 29.1 µM | 9.72 µM | 
3 | COc1ccc2cc3[nH]c(=O)cc(O)c3cc2c1OC | > 100 µM | > 100 µM | > 100 µM | > 100 µM | > 100 µM |  | > 100 µM | > 100 µM |  |  | > 100 µM | > 100 µM | > 100 µM | > 100 µM | > 100 µM |  | > 100 µM |  |  | > 100 µM
4 | COc1cc(S(=O)(=O)Nc2nc(-c3ccc(N4C(=O)/C(=C/C=C/c5ccccc5)N=C4c4ccccc4)cc3)cs2)ccc1Cl | > 100 µM |  | > 100 µM | > 100 µM | > 100 µM | > 100 µM | > 100 µM | > 100 µM | > 100 µM | > 100 µM | > 100 µM | > 100 µM | > 100 µM | > 100 µM | > 100 µM | > 100 µM | > 100 µM | 94 µM | > 100 µM | 
5 | C1CSCCSCCSCCSC1 | > 100 µM | > 100 µM |  |  |  | > 100 µM | > 100 µM | > 100 µM | > 100 µM | > 100 µM | > 100 µM | > 100 µM | > 100 µM | > 100 µM | > 100 µM | > 100 µM |  | > 100 µM | > 100 µM | 
6 | Oc1c(Cl)c(Cl)c(O)c(CCNc2ccc3ncccc3c2)c1Cl | 24.1 µM |  |  | 34.3 µM | 35.3 µM | 27.6 µM | 36.8 µM | 36.7 µM | 4.29 µM |  | 39.4 µM | > 100 µM | 28.9 µM | 88.4 µM | 18.8 µM | > 100 µM | > 100 µM |  |  | 
7 | CCCCN1CN2C(=O)C(C(=O)OCC)C(=O)c3sc4nc(SC)nc1c4c32 (configuration not stated) | 30.8 µM | 42.7 µM | 83.9 µM |  | 30.2 µM | 31.7 µM | 33.7 µM | 28.4 µM | 35.4 µM | 32.6 µM | 33.8 µM | 33.4 µM | 34.1 µM | 40.5 µM | 39.8 µM | 39.5 µM | > 100 µM | 30.6 µM | 32.3 µM | 
8 | COc1ccc(C2SCC(=O)N2NC(=O)c2ccncc2)cc1F (configuration not stated) | > 100 µM | > 100 µM |  |  | > 100 µM | > 100 µM | > 100 µM | > 100 µM | > 100 µM |  |  | > 100 µM | > 100 µM | > 100 µM | > 100 µM |  | > 100 µM |  |  | 
